{"source": "patent US20240400547A1", "about": "“2,6-PIPERIDINEDIONE COMPOUND AND APPLICATION THEREOF” (MEDSHINE DISCOVERY INC., priority 2021, published 2024)", "key": {"[1]": {"test": "Pharmacokinetic evaluation in mice", "assay_type": "in vivo, C57BL/6N or CD-1 male mice", "conditions": "for Vd / half-life / clearance / bioavailability: male, plasma; for Vd: read-out: Apparent volume of distribution; for half-life: read-out: Elimination half-life (converted); for clearance: read-out: Plasma clearance rate; for bioavailability: po, read-out: Bioavailability F", "excerpt": "In this study, C57BL/6N or CD-1 male mice were selected as test animals, and LC/MS/MS method was used to quantify plasma concentrations of the test compound intravenously injected or gavage to mice at different time points, so as to evaluate the pharmacokinetic profile of the compounds of the present disclosure in mice.\nC57BL/6N mice (male, 20 to 30 g, 7 to 10 weeks old, Beijing VitalRiver) or CD-1 mice (male, 20 to 35 g, 7 to 10 weeks old, Beijing VitalRiver).\n• The test compounds, either as clear or suspension solutions, were administered intravenously through the tail vein to C57BL/6N mice or CD-1 mice (either fasted overnight or fed) (vehicle: 10% DMSO/10% solutol/80% H2O or 5% DMSO/10% solutol/85% H2O), or intragastrically administered to C57BL/6N mice or CD-1 mice (either fasted overnight or fed). For intravenous injection, blood 50 μL was collected via the cheek vein puncture at 0 h (pre-administration), 0.083, 0.25, 0.5, 1, 2, 4, 6, 8, and 24 h after administration, and placed in an anticoagulant tube added with heparin sodium. The mixture was thoroughly vortexed and mixed, and centrifuged at 6000 g for 3 minutes at 2-8° C. For oral administration, blood was collected via the cheek vein puncture at 0 h (pre-administration), 0.083, 0.25, 0.5, 1, 2, 4, 6, 8, and 24 h after administration, and placed in an anticoagulant tube added with heparin sodium. The mixture was thoroughly vortexed and mixed, and centrifuged at 6000 g for 3 minutes at 2-8° C. Plasma concentrations were determined by LC-MS/MS method, and relevant pharmacokinetic parameters were calculated using Phoenix WinNonlin8.2.0 pharmacokinetic software with non-compartmental model linear-log trapezoidal method.\n• The test compounds, as clear solutions, were administered intravenously through the tail vein to CD-1 mice (fasted overnight) (vehicle: 10% DMSO/10% solutol/80% H2O or 5% DMSO/10% solutol/85% H2O), or intragastrically administered to CD-1 mice (fasted overnight). For intravenous injection, blood was collected via the saphenous vein puncture at 0 h (pre-administration), 0.083, 0.25, 0.5, 1, 2, 4, 8, and 24 h after administration, and placed in a EDTA-K2 anticoagulant tube. The mixture was thoroughly vortexed and mixed, and centrifuged at 3200 g for 10 minutes at 4° C. to obtain plasma. For oral administration, blood was collected via the saphenous vein puncture at 0 h (pre-administration), 0.083, 0.25, 0.5, 1, 2, 4, 8, and 24 h after administration, and placed in a EDTA-K2 anticoagulant tube. The mixture was thoroughly vortexed and mixed, and centrifuged at 3200 g for 10 minutes at 4° C. to obtain plasma. Plasma concentrations were determined by LC-MS/MS method, and relevant pharmacokinetic parameters were calculated using Phoenix WinNonlin 6.3 pharmacokinetic software with non-compartmental model linear-log trapezoidal method."}, "[2]": {"tested_on": "human lymphoma SU-DHL-2 cells", "test": "In vivo efficacy in CB17 SCID mouse model with subcutaneous xenograft tumors of human lymphoma SU-DHL-2 cells", "set-up": "species or system CB17 SCID mice", "conditions": "for Tumor volume (Day 0): Day 0 (grouping, baseline); for Tumor volume (Day 0) / Tumor volume (Day 21): average, SEM in next grid line", "protocol": "The study evaluates the antitumor effect of the test compounds using a CB17 SCID mouse model with subcutaneous xenograft tumors of SU-DHL-2 human lymphoma cells.\n• 1. Experimental animals: CB17 SCID mice, female, 6 to 8 weeks old, weighing 18 to 22 g. Beijing Vital River Laboratory Animal Technology Co., Ltd. • 2. Cell line: human lymphoma SU-DHL-2 cells (Cat. No ATCC-CRL-2956).\nCell culture: Human lymphoma SU-DHL-2 cells (ATCC-CRL-2956) were cultured in suspension in vitro. The culture conditions were RPMI 1640 medium with […] fetal bovine serum, 100 U/mL penicillin and 100 μg/mL streptomycin, and cultured in a 37° C., […] incubator. Routine passaging was performed twice a week. When the cell saturation reached […] and the quantity met the requirements, the cells were collected, counted, and seeded.\nTumor cell seeding and grouping: 0.2 mL (10×10^6 cells) of SU-DHL-2 cells, in a PBS:Matrigel=1:1 mixture, were subcutaneously inoculated into the right dorsal flank of each mouse. When the average tumor volume reached approximately 139 mm^3, the animals were divided into groups for drug administration. The day of grouping was recorded as Day 0, and dosing began according to the body weight of the animals.\nThe pharmacological experiment consisted of a dosing cycle of seven days, with medication administered once daily at a 24-hour interval. The test compounds were given intragastrically, with a total of three dosing cycles. During the experiment, the body weight and tumor size of the animals were measured twice a week, and clinical symptoms were observed and recorded daily.\nThe dosing for the test compounds were 10 mg/kg, 30 mg/kg, and 100 mg/kg, with a solvent composition of 10% DMSO/10% Solutol/80% water. The formula for calculating tumor volume (TV) was: 1/2×a×b^2, where a and b were the measured length and width of the tumor, respectively. The formula for calculating the Tumor Growth Inhibition (TGI) rate was: TGI (%)=[(1−(average tumor volume at the end of administration in a treatment group average tumor volume at the beginning of administration in this treatment group))/(average tumor volume at the end of treatment in the vehicle control group−average tumor volume at the beginning of treatment in the vehicle control group)]×100%. Relative Tumor Proliferation rate T/C (%): the calculation formula was as follows: T/C %=TRTV/CRTV×100% (TRTV: average RTV of the treatment group; CRTV: average RTV of the negative control group). According to the results of tumor measurement, the relative tumor volume (RTV) was calculated, and the calculation formula was RTV=Vt/V0, where V0 was the tumor volume measured at the time of group administration (i.e. Day 0), VT was the tumor volume at a certain measurement, and TRTV and CRTV were taken from the same day's data.\nStatistical analysis is based on the data of RTV at the end of the experiment and analyzed by SPSS software. For comparisons between two groups, a T test was used. For comparisons among three or more groups, one-way ANOVA was utilized. If the variance was homogenous (no significant difference in F value), Tukey's method was applied for analysis. If the variance was heterogeneous (significant difference in F value), the Games-Howell method was used for testing. A p-value of <0.05 was considered statistically significant."}, "[3]": {"conditions": "intragastric administration 10 mg/kg, experimental operation B, fasted overnight"}, "[4]": {"conditions": "intravenous injection 2 mg/kg, experimental operation B, fasted overnight"}, "[5]": {"conditions": "CD-1, mouse, intravenous injection 2 mg/kg, experimental operation B, fasted overnight"}, "[6]": {"conditions": "CD-1, mouse, intragastric administration 10 mg/kg, experimental operation B, fasted overnight"}, "[7]": {"conditions": "intragastric administration 10 mg/kg, experimental operation A, fed"}, "[8]": {"conditions": "10 mg/kg intragastric once daily"}, "[9]": {"conditions": "30 mg/kg intragastric once daily"}, "[10]": {"conditions": "100 mg/kg intragastric once daily"}, "[11]": {"conditions": "intragastric administration 10 mg/kg, experimental operation A, fasted overnight"}, "[12]": {"conditions": "mouse, intravenous injection 2 mg/kg, experimental operation A, fasted overnight"}}, "note": "Counter-ions that a name gives are not always drawn. Like-named read-outs stand apart in the source and are kept apart here.", "data": [{"compound": "CC(C)(O)c1cc2nc(C3CCC(CN4CCN(CC(=O)Nc5cccc6c5ccc5onc(C7CCC(=O)NC7=O)c56)CC4)CC3)sc2cc1NC(=O)c1cccc(C(F)(F)F)n1", "note": "(stereo not shown) [Formate of WX017]", "values": [{"measurement": "Area under drug-time curve (0-inf)", "setting": "[1]; [3]", "result": 5.07, "unit": "µM·h"}, {"measurement": "Peak concentration", "setting": "[1]; [3]", "result": 0.65, "unit": "µM"}, {"measurement": "Time to peak concentration", "setting": "[1]; [3]", "result": 4.00, "unit": "h"}, {"measurement": "Area under drug-time curve (0-inf)", "setting": "[1]; [4]", "result": 3.17, "unit": "µM·h"}, {"measurement": "Vd", "setting": "[1]; [5]", "result": 2.59, "unit": "L/kg"}, {"measurement": "half-life", "setting": "[1]; [5]", "result": 2.32, "unit": "h"}, {"measurement": "clearance", "setting": "[1]; [5]", "result": 12.2, "unit": "mL/min/kg"}, {"measurement": "bioavailability", "setting": "[1]; [6]", "result": 31.9, "unit": "%"}]}, {"compound": "O=C1CCC(c2coc3cc(NC(=O)CN4CCN(C[C@H]5CC[C@H](N6CC(NC(=O)c7coc(-c8ccnc(NCC9CC9)c8)n7)C(C(F)F)N6)CC5)CC4)ccc23)C(=O)N1", "note": "(stereo partly shown) [Hydrochloride of WX002]", "values": [{"measurement": "Area under drug-time curve (0-inf)", "setting": "[1]; [3]", "result": 2.00, "unit": "µM·h"}, {"measurement": "Peak concentration", "setting": "[1]; [3]", "result": 0.64, "unit": "µM"}, {"measurement": "Time to peak concentration", "setting": "[1]; [3]", "result": 1.00, "unit": "h"}]}, {"compound": "O=C1CCC(c2noc3ccc4c(NC(=O)CN5CCN(C[C@H]6CC[C@H](n7cc(NC(=O)c8coc(-c9ccnc(NCC%10CC%10)c9)n8)c(C(F)F)n7)CC6)CC5)cccc4c23)C(=O)N1", "note": "(stereo partly shown) [Hydrochloride of WX014]", "values": [{"measurement": "Area under drug-time curve (0-inf)", "setting": "[1]; [7]", "result": 4.47, "unit": "µM·h"}, {"measurement": "Peak concentration", "setting": "[1]; [7]", "result": 0.54, "unit": "µM"}, {"measurement": "Time to peak concentration", "setting": "[1]; [7]", "result": 1.00, "unit": "h"}, {"measurement": "Area under drug-time curve (0-inf)", "setting": "[1]; intravenous injection 2 mg/kg, experimental operation A, fed", "result": 5.40, "unit": "µM·h"}, {"measurement": "Tumor volume (Day 0)", "setting": "[2]; [8]", "result": 139, "unit": "mm^3"}, {"measurement": "T/C (%) (Day 21)", "setting": "[2]; [8]", "result": 42.33, "unit": "%"}, {"measurement": "TGI (%) (Day 21)", "setting": "[2]; [8]", "result": 62.13, "unit": "%"}, {"measurement": "Tumor volume (Day 21)", "setting": "[2]; [8]", "result": 800, "unit": "mm^3"}, {"measurement": "Tumor volume (Day 0)", "setting": "[2]; [9]", "result": 139, "unit": "mm^3"}, {"measurement": "T/C (%) (Day 21)", "setting": "[2]; [9]", "result": 42.26, "unit": "%"}, {"measurement": "TGI (%) (Day 21)", "setting": "[2]; [9]", "result": 61.41, "unit": "%"}, {"measurement": "Tumor volume (Day 21)", "setting": "[2]; [9]", "result": 813, "unit": "mm^3"}, {"measurement": "Tumor volume (Day 0)", "setting": "[2]; [10]", "result": 139, "unit": "mm^3"}, {"measurement": "T/C (%) (Day 21)", "setting": "[2]; [10]", "result": 33.23, "unit": "%"}, {"measurement": "TGI (%) (Day 21)", "setting": "[2]; [10]", "result": 72.07, "unit": "%"}, {"measurement": "Tumor volume (Day 21)", "setting": "[2]; [10]", "result": 626, "unit": "mm^3"}]}, {"compound": "O=C1CCC(c2noc3ccc4c(NC(=O)C(F)(F)C5CCN(CC6CCC(n7cc(NC(=O)c8coc(-c9ccnc(NCC%10CC%10)c9)n8)c(C(F)F)n7)CC6)CC5)cccc4c23)C(=O)N1", "note": "(stereo not shown) [Hydrochloride of WX018]", "values": [{"measurement": "Area under drug-time curve (0-inf)", "setting": "[1]; [3]", "result": 1.01, "unit": "µM·h"}, {"measurement": "Peak concentration", "setting": "[1]; [3]", "result": 0.09, "unit": "µM"}, {"measurement": "Time to peak concentration", "setting": "[1]; [3]", "result": 6.00, "unit": "h"}, {"measurement": "Area under drug-time curve (0-inf)", "setting": "[1]; [4]", "result": 3.06, "unit": "µM·h"}, {"measurement": "Vd", "setting": "[1]; [5]", "result": 4.39, "unit": "L/kg"}, {"measurement": "half-life", "setting": "[1]; [5]", "result": 5.22, "unit": "h"}, {"measurement": "clearance", "setting": "[1]; [5]", "result": 11.8, "unit": "mL/min/kg"}, {"measurement": "bioavailability", "setting": "[1]; [6]", "result": 6.59, "unit": "%"}]}, {"compound": "O=C1CCC(c2coc3ccc4c(NC(=O)CN5CCN(C[C@H]6CC[C@H](n7cc(NC(=O)c8coc(-c9ccnc(NCC%10CC%10)c9)n8)c(C(F)F)n7)CC6)CC5)cccc4c23)C(=O)N1", "note": "(stereo partly shown) [Trifluoroacetate of WX011]", "values": [{"measurement": "Area under drug-time curve (0-inf)", "setting": "[1]; [11]", "result": 5.00, "unit": "µM·h"}, {"measurement": "Peak concentration", "setting": "[1]; [11]", "result": 0.45, "unit": "µM"}, {"measurement": "Time to peak concentration", "setting": "[1]; [11]", "result": 1.67, "unit": "h"}, {"measurement": "Area under drug-time curve (0-inf)", "setting": "[1]; intravenous injection 2 mg/kg, experimental operation A, fasted overnight", "result": 15.31, "unit": "µM·h"}, {"measurement": "Vd", "setting": "[1]; [12]", "result": 1.8, "unit": "L/kg"}, {"measurement": "half-life", "setting": "[1]; [12]", "result": 9.45, "unit": "h"}, {"measurement": "clearance", "setting": "[1]; [12]", "result": 2.76, "unit": "mL/min/kg"}, {"measurement": "bioavailability", "setting": "[1]; mouse, intragastric administration 10 mg/kg, experimental operation A, fasted overnight", "result": 6.53, "unit": "%"}]}]}
